Measurements published in patent US7396837B2, “Antitumoral analogs of lamellarins” (Pharma Mar, S.A.U., priority 2002, dated 2008).
Where two headings read alike, the source gives them in different places.

Assays:
Format in all cases: cell-based
[1] = system: K-562; assay: SRB colorimetric cell growth inhibition assay, K-562; conditions: for GI50: GI=growth inhibition, read-out: GI50 K-562
In short: (§1)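 Cancer cells grown in vitro were continuously treated with compound. Cell mass was then determined by SRB staining and expressed as growth inhibition.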

[2] = system: A-549; assay: SRB colorimetric cell growth inhibition assay, A-549; conditions: for GI50: GI=growth inhibition, read-out: GI50 A-549
In short: as §1

[3] = system: SK-MEL-28; assay: SRB colorimetric cell growth inhibition assay, SK-MEL-28; conditions: for GI50: GI=growth inhibition, read-out: GI50 MEL-28
In short: as §1

[4] = system: HT-29; assay: SRB colorimetric cell growth inhibition assay, HT-29; conditions: for GI50: GI=growth inhibition, read-out: GI50 HT-29
In short: as §1

[5] = system: LoVo; assay: SRB colorimetric cell growth inhibition assay, LoVo; conditions: for GI50: GI=growth inhibition, read-out: GI50 LOVO
In short: as §1

[6] = system: LoVo-Dox; assay: SRB colorimetric cell growth inhibition assay, LoVo-Dox (MDR); conditions: for GI50: GI=growth inhibition, read-out: GI50 LOVO-DOX
In short: as §1

[7] = system: DU-145; assay: SRB colorimetric cell growth inhibition assay, DU-145; conditions: for GI50: GI=growth inhibition, read-out: GI50 DU-145
In short: as §1

[8] = system: LNCaP; assay: SRB colorimetric cell growth inhibition assay, LNCaP; conditions: for GI50: GI=growth inhibition, read-out: GI50 LN-caP
In short: as §1

[9] = system: SK-BR-3; assay: SRB colorimetric cell growth inhibition assay, SK-BR-3; conditions: for GI50: GI=growth inhibition, read-out: GI50 SK-BR-3
In short: as §1

[10] = system: IGROV; assay: SRB colorimetric cell growth inhibition assay, IGROV; conditions: IGROV; for GI50: GI=growth inhibition, read-out: GI50 IGROV
In short: as §1

[11] = system: IGROV-ET; assay: SRB colorimetric cell growth inhibition assay, IGROV-ET (ET-743 resistant); conditions: for GI50: GI=growth inhibition, read-out: GI50 IGROV-ET
In short: as §1

[12] = system: HeLa; assay: SRB colorimetric cell growth inhibition assay, HeLa; conditions: for GI50: GI=growth inhibition, read-out: GI50 HELA
In short: as §1

[13] = system: HeLa-APL; assay: SRB colorimetric cell growth inhibition assay, HeLa-APL (aplidine resistant); conditions: for GI50: read-out: GI50 HELA-APL
In short: as §1

[14] = system: PANC-1; assay: SRB colorimetric cell growth inhibition assay, PANC-1; conditions: for GI50: GI=growth inhibition, read-out: GI50 PANC-1
In short: as §1

Which results are given for `COc1cc(-c2c3n(c4c(=O)oc5cc(OC(=O)[C@H](CO)NC(=O)OC(C)(C)C)c(OC)cc5c24)CCc2c-3cc(OC)c(OC)c2OC(=O)[C@H](CO)NC(=O)OC(C)(C)C)ccc1OC(=O)[C@H](CO)NC(=O)OC(C)(C)C` [Compound 60]?
GI50 ([1]; Homo sapiens, K562, K-562): 697 nM; IC (TGI) ([1]; Homo sapiens, K562, K-562, TGI=total growth inhibition (cytostatic effect), read-out: TGI K-562): 2190 nM; CC50 ([1]; Homo sapiens, K562, read-out: LC50 K-562, K-562, LC=cell killing (cytotoxic effect)): 6870 nM; GI50 ([2]; Homo sapiens, A549, A-549): 1620 nM; IC (TGI) ([2]; Homo sapiens, A549, A-549, TGI=total growth inhibition (cytostatic effect), read-out: TGI A-549): 4630 nM; CC50 ([2]; Homo sapiens, A549, read-out: LC50 A-549, A-549, LC=cell killing (cytotoxic effect)): 9150 nM; GI50 ([3]; Homo sapiens, SK-MEL-28, MEL-28): 1170 nM; IC (TGI) ([3]; Homo sapiens, SK-MEL-28, MEL-28, TGI=total growth inhibition (cytostatic effect), read-out: TGI MEL-28): 4140 nM; CC50 ([3]; Homo sapiens, SK-MEL-28, read-out: LC50 MEL-28, MEL-28, LC=cell killing (cytotoxic effect)): 9150 nM; GI50 ([4]; Homo sapiens, HT-29, HT-29): 2420 nM; IC (TGI) ([4]; Homo sapiens, HT-29, HT-29, TGI=total growth inhibition (cytostatic effect), read-out: TGI HT-29): 5880 nM; CC50 ([4]; Homo sapiens, HT-29, read-out: LC50 HT-29, HT-29, LC=cell killing (cytotoxic effect)): 9150 nM; CC50 ([5]; Homo sapiens, LoVo, read-out: LC50 LOVO, LOVO, LC=cell killing (cytotoxic effect)): 7940 nM; GI50 ([5]; Homo sapiens, LoVo): 1610 nM; IC (TGI) ([5]; Homo sapiens, LoVo, TGI=total growth inhibition (cytostatic effect), read-out: TGI LOVO): 3580 nM; GI50 ([6]; Homo sapiens, LOVO-DOX): 2820 nM; CC50 ([6]; Homo sapiens, read-out: LC50 LOVO-DOX, LOVO-DOX, LC=cell killing (cytotoxic effect)): 9150 nM; IC (TGI) ([6]; Homo sapiens, LOVO-DOX, TGI=total growth inhibition (cytostatic effect), read-out: TGI LOVO-DOX): 9150 nM; GI50 ([7]; Homo sapiens, DU-145, DU-145): 1180 nM; IC (TGI) ([7]; Homo sapiens, DU-145, DU-145, TGI=total growth inhibition (cytostatic effect), read-out: TGI DU-145): 2650 nM; CC50 ([7]; Homo sapiens, DU-145, read-out: LC50 DU-145, DU-145, LC=cell killing (cytotoxic effect)): 5970 nM; GI50 ([8]; Homo sapiens, LNCaP, LN-caP): 550 nM; IC (TGI) ([8]; Homo sapiens, LNCaP, LN-caP, TGI=total growth inhibition (cytostatic effect), read-out: TGI LN-caP): 1790 nM; CC50 ([8]; Homo sapiens, LNCaP, read-out: LC50 LN-caP, LN-caP, LC=cell killing (cytotoxic effect)): 5250 nM; GI50 ([9]; Homo sapiens, SK-BR-3, SK-BR-3): 491 nM; IC (TGI) ([9]; Homo sapiens, SK-BR-3, SK-BR-3, TGI=total growth inhibition (cytostatic effect), read-out: TGI SK-BR-3): 1640 nM; CC50 ([9]; Homo sapiens, SK-BR-3, read-out: LC50 SK-BR-3, SK-BR-3, LC=cell killing (cytotoxic effect)): 8580 nM; CC50 ([10]; Homo sapiens, read-out: LC50 IGROV, IGROV, LC=cell killing (cytotoxic effect)): 9150 nM; GI50 ([10]; Homo sapiens): 682 nM; IC (TGI) ([10]; Homo sapiens, TGI=total growth inhibition (cytostatic effect), read-out: TGI IGROV): 3290 nM; GI50 ([11]; Homo sapiens, IGROV-ET): 2560 nM; IC (TGI) ([11]; Homo sapiens, IGROV-ET, TGI=total growth inhibition (cytostatic effect), read-out: TGI IGROV-ET): 6160 nM; CC50 ([11]; Homo sapiens, read-out: LC50 IGROV-ET, IGROV-ET, LC=cell killing (cytotoxic effect)): 9150 nM; CC50 ([12]; Homo sapiens, HeLa, read-out: LC50 HELA, HELA, LC=cell killing (cytotoxic effect)): 6130 nM; IC (TGI) ([12]; Homo sapiens, HeLa, read-out: TGI HELA): 2510 nM; GI50 ([12]; Homo sapiens, HeLa): 1020 nM; GI50 ([13]; Homo sapiens): 3490 nM; CC50 ([13]; Homo sapiens, read-out: LC50 HELA-APL, HELA-APL, LC=cell killing (cytotoxic effect)): 9150 nM; IC (TGI) ([13]; Homo sapiens, read-out: TGI HELA-APL): 9150 nM; GI50 ([14]; Homo sapiens, PANC-1, PANC-1): 747 nM; IC (TGI) ([14]; Homo sapiens, PANC-1, PANC-1, TGI=total growth inhibition (cytostatic effect), read-out: TGI PANC-1): 4400 nM; CC50 ([14]; Homo sapiens, PANC-1, read-out: LC50 PANC-1, PANC-1, LC=cell killing (cytotoxic effect)): 9150 nM

For `COc1cc2c(cc1O)oc(=O)c1c2c(-c2ccc(OC(=O)[C@H](C)N)c(OC)c2)c2c3cc(OC)c(O)cc3ccn21.Cl` [Compound 238], which GI50 ([1]; K-562) is on record?
Its GI50 is 43.3 nM.

What about the CC50 ([1]; K-562, cell killing (cytotoxic effect), read-out: LC50 K-562) of the same compound?
The CC50 was 1200 nM.

What about the “TGI K-562” value ([1]; K-562, total growth inhibition (cytostatic effect)) of the same compound?
The value was 2.47E−07 Molar.

And the GI50 ([2]; A-549)?
Its GI50 is 45.8 nM.

What about the CC50 ([2]; A-549, cell killing (cytotoxic effect), read-out: LC50 A-549) of the same compound?
The CC50 was 16500 nM.

What about the “TGI A-549” value ([2]; A-549, total growth inhibition (cytostatic effect)) of the same compound?
Its value is 4.38E−07 Molar.

What about the GI50 ([3]; MEL-28) of the same compound?
Its GI50 is 52.6 nM.

What about the CC50 ([3]; MEL-28, cell killing (cytotoxic effect), read-out: LC50 MEL-28) of the same compound?
The CC50 was 12500 nM.

What about the “TGI MEL-28” value ([3]; MEL-28, total growth inhibition (cytostatic effect)) of the same compound?
Its value is 3.51E−07 Molar.

What about the GI50 ([4]; HT-29) of the same compound?
Its GI50 is 2650 nM.

And the CC50 ([4]; HT-29, cell killing (cytotoxic effect), read-out: LC50 HT-29)?
Its CC50 is 16500 nM.

What about the “TGI HT-29” value ([4]; HT-29, total growth inhibition (cytostatic effect)) of the same compound?
Its value is 1.06E−05 Molar.

And the GI50 ([5]; LOVO)?
The GI50 was 57 nM.

What about the CC50 ([5]; LOVO, cell killing (cytotoxic effect), read-out: LC50 LOVO) of the same compound?
Its CC50 is 1290 nM.

What about the “TGI LOVO” value ([5]; LOVO, total growth inhibition (cytostatic effect)) of the same compound?
Its value is 2.26E−07 Molar.

What about the GI50 ([6]; LOVO-DOX) of the same compound?
Its GI50 is 2260 nM.

What about the CC50 ([6]; LOVO-DOX, cell killing (cytotoxic effect), read-out: LC50 LOVO-DOX) of the same compound?
Its CC50 is 16500 nM.

And the “TGI LOVO-DOX” value ([6]; LOVO-DOX, total growth inhibition (cytostatic effect))?
Its value is 8.98E−07 Molar.

What about the GI50 ([7]; DU-145) of the same compound?
Its GI50 is 45.8 nM.

And the CC50 ([7]; DU-145, cell killing (cytotoxic effect), read-out: LC50 DU-145)?
The CC50 was 16500 nM.

And the “TGI DU-145” value ([7]; DU-145, total growth inhibition (cytostatic effect))?
The value was 9.65E−08 Molar.

And the GI50 ([8]; LN-caP)?
The GI50 was 2130 nM.

What about the CC50 ([8]; LN-caP, cell killing (cytotoxic effect), read-out: LC50 LN-caP) of the same compound?
Its CC50 is 16500 nM.

And the “TGI LN-caP” value ([8]; LN-caP, total growth inhibition (cytostatic effect))?
Its value is 1.65E−05 Molar.

What about the GI50 ([9]; SK-BR-3) of the same compound?
Its GI50 is 153 nM.

What about the CC50 ([9]; SK-BR-3, cell killing (cytotoxic effect), read-out: LC50 SK-BR-3) of the same compound?
Its CC50 is 16500 nM.

What about the “TGI SK-BR-3” value ([9]; SK-BR-3, total growth inhibition (cytostatic effect)) of the same compound?
Its value is 1.61E−06 Molar.

What about the GI50 [10] of the same compound?
The GI50 was 79.9 nM.

What about the CC50 ([10]; cell killing (cytotoxic effect), read-out: LC50 IGROV) of the same compound?
The CC50 was 1260 nM.

What about the “TGI IGROV” value ([10]; total growth inhibition (cytostatic effect)) of the same compound?
The value was 2.82E−07 Molar.

What about the GI50 ([11]; IGROV-ET) of the same compound?
The GI50 was 41.3 nM.

What about the CC50 ([11]; IGROV-ET, cell killing (cytotoxic effect), read-out: LC50 IGROV-ET) of the same compound?
Its CC50 is 16500 nM.

What about the “TGI IGROV-ET” value ([11]; IGROV-ET, total growth inhibition (cytostatic effect)) of the same compound?
The value was 1.44E−07 Molar.

And the GI50 ([12]; HELA)?
Its GI50 is 52.2 nM.

And the CC50 ([12]; HELA, cell killing (cytotoxic effect), read-out: LC50 HELA)?
The CC50 was 1240 nM.

And the “TGI HELA” value ([12]; HELA, total growth inhibition (cytostatic effect))?
Its value is 1.31E−07 Molar.

And the GI50 ([13]; HELA-APL, GI=growth inhibition)?
The GI50 was 157 nM.

What about the CC50 ([13]; HELA-APL, cell killing (cytotoxic effect), read-out: LC50 HELA-APL) of the same compound?
Its CC50 is 1760 nM.

What about the “TGI HELA-APL” value ([13]; HELA-APL, total growth inhibition (cytostatic effect)) of the same compound?
The value was 5.16E−07 Molar.

And the GI50 ([14]; PANC-1)?
Its GI50 is 25.4 nM.

And the CC50 ([14]; PANC-1, cell killing (cytotoxic effect), read-out: LC50 PANC-1)?
Its CC50 is 1610 nM.

And the “TGI PANC-1” value ([14]; PANC-1, total growth inhibition (cytostatic effect))?
The value was 2.50E−07 Molar.
